# Reference: patent publication US11655201B2, “Method for preparing 2-tert-butyl-4-methoxyphenol and new crystal form thereof” (BIOMEDICAL ANALYSIS CENTER, ACADEMY OF MILITARY MEDICAL …, priority 2017, dated 2023)
# Several values for one entry are separate records, joined by “and”; a condition that tells them apart may be missing. Equal values may be shown once.
# What was measured:
# [1] = Pharmacokinetic evaluation of 2-BHA of form A in rats by intragastric administration; assay type: in vivo, SD rats; details: 100 mg/kg intragastric, individual rats 1♂-6♀;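 note: plasma concentration in ng/mL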
# Procedure: SD rats, half male and half female, fasted overnight, 6 rats/group, were given 2-tert-butyl-4-methoxyphenol suspended in Tween 80 (2-BHA of form A prepared by Example 4) by intragastric administration, the dose being 100 mg/kg body weight. […]
# [2] = Accelerated stability test for bulk drug; assay type: physicochemical; details: for Appearance / Content / Related substance: bulk drug, 40° C.±2° C., RH 75%±5%
# Procedure: (§1) An accelerated stability test for bulk drug was carried out directly from the crystal powder. An accelerated stability test for formulation was carried out on tablets.
# [3] = Accelerated stability test for formulation (tablets); assay type: physicochemical; details: conclusion from Tables 3 and 4
# Procedure: as §1
# Preparation process of formulation: form A of 2-tert-butyl-4-methoxyphenol (2-BHA) (form A of 2-BHA prepared in Example 4), microcrystalline cellulose, lactose and other auxiliary materials respectively were screened through 100 mesh, respectively for use. The prescription amount of form A of 2-tert-butyl-4-methoxyphenol, microcrystalline cellulose, lactose and other auxiliary materials were fully mixed according to the equal volume addition method. The above mixture was added to an aqueous solution of 2-3% polyvinylpyrrolidone under stirring, to obtain a soft material, which was screened through a 20-mesh sieve. The tablet weight regulator was adjusted to make the tablet weight being 250±10 mg, the hardness being 60-80 N, and then the tablet was compressed. After screening for dissolution, homogeneity and reproducibility and the like, the prescription was determined and 3 batches of samples were prepared.
# [4] = Plasma concentration after intragastric administration in mice; assay type: in vivo
# [5] = system: differentiation of monocytes into M2 macrophages; details: by inhibiting production of ROS; Cell Research 2013, 23:898-914; cited from earlier work
# [6] = system: lung cancer in K-ras^LA2 model mice; details: Cell Research 2013, 23:898-914; cited from earlier work
# [7] = Drug metabolism experiments (in vivo half-life)
# Procedure: (§2) At the same time, it was found through drug metabolism experiments that the in vivo half-life of BHA was very short, only 30-60 minutes. […] Therefore, combining with the research results of literature on the metabolites of 2-tert-butyl-4-methoxyphenol (with DNA damaging effects, Food and Chemical Toxicology 1999, 37: 1027-1038), it can be inferred that 2-tert-butyl-4-methoxyphenol itself has an anti-tumor effect, and the interaction of its metabolite tert-butylhydroquinone (TBHQ) with DNA may be the cause of its side effects. BHA has the potential to be developed into a drug.
# mice = test: Toxicology experiments in mice; assay type: in vivo
# Procedure: as §2
# [8] = Comparative study of antioxidant activity, 2-BHA vs 3-BHA; details: ratio to 3-BHA
# Excerpt: (§3) However, the existing commercial BHA products are all mixtures of 2-tert-butyl-4-methoxyphenol (2-BHA) and 3-tert-butyl-4-methoxyphenol (3-BHA), with a content ratio of approximately 9:1-50:1. The inventors comparatively studied the antioxidant activities and macrophage polarization regulation activities of 2-tert-butyl-4-methoxyphenol and 3-tert-butyl-4-methoxyphenol. […] Therefore, the development of 2-tert-butyl-4-methoxyphenol as a medicine still needs to improve the purity.
# macrophage polarization = test: Comparative study of macrophage polarization regulation activity, 2-BHA vs 3-BHA; assay type: cell-based; details: ratio to 3-BHA
# Excerpt: as §3
# [9] = system: M2 polarization of macrophages; details: CN 201610037849.5; cited from earlier work
# [10] = system: lung cancer and breast cancer; details: mouse models with lung cancer and breast cancer; CN 201610037849.5; cited from earlier work
# [11] = early studies, literature; cited from earlier work
# [12] = 600 mg/kg administration in mice
# [13] = 1100 mg/kg administration in mice
smiles,measurement,setting,value
"COc1ccc(O)c(C(C)(C)C)c1 [2-BHA of form A, 2-tert-butyl-4-methoxyphenol]",plasma concentration,"[1]; 5 min after administration, female rats",80.026 ng/mL and 165.939 ng/mL and 77.996 ng/mL
same,plasma concentration,"[1]; 5 min after administration, male rats",159.617 ng/mL and 125.112 ng/mL and 147.531 ng/mL
same,plasma concentration,"[1]; 30 min, female rats",157.878 ng/mL and 371.466 ng/mL and 240.870 ng/mL
same,plasma concentration,"[1]; 30 min, male rats",694.651 ng/mL and 489.006 ng/mL and 359.028 ng/mL
same,plasma concentration,"[1]; 1 h, female rats",504.084 ng/mL and 603.120 ng/mL and 643.208 ng/mL
same,plasma concentration,"[1]; 1 h, male rats",560.980 ng/mL and 570.039 ng/mL
same,plasma concentration,"[1]; 2 h, female rats",687.296 ng/mL and 410.399 ng/mL and 199.206 ng/mL
same,plasma concentration,"[1]; 2 h, male rats",267.167 ng/mL and 267.234 ng/mL and 312.997 ng/mL
same,plasma concentration,"[1]; 4 h, female rats",283.840 ng/mL and 205.532 ng/mL and 146.191 ng/mL
same,plasma concentration,"[1]; 4 h, male rats",192.535 ng/mL and 63.401 ng/mL and 86.609 ng/mL
same,plasma concentration,"[1]; 8 h, female rats",78.447 ng/mL and 42.984 ng/mL and 121.700 ng/mL
same,plasma concentration,"[1]; 8 h, male rats",117.919 ng/mL and 27.328 ng/mL and 192.532 ng/mL
same,plasma concentration,"[1]; 24 h, BLLOQ = below the detection limit, female rats",BLLOQ
same,plasma concentration,"[1]; 24 h, BLLOQ = below the detection limit, male rats",BLLOQ
same,concentration at 1 h,"[1]; both sexes, SD, rat, plasma, oral, 100 mg/kg, 1 h",881 ng/mL
same,Appearance,"[2]; 0 month, listed as 20160808",white
same,Content,"[2]; 0 month, listed as 20160808",99.5%
same,Related substance,"[2]; 0 month, listed as 20160808",0.34%
same,Appearance,"[2]; 0 month, listed as 20160904",white
same,Content,"[2]; 0 month, listed as 20160904",99.8%
same,Related substance,"[2]; 0 month, listed as 20160904",0.14%
same,Appearance,"[2]; 0 month, listed as 20160908",white
same,Content,"[2]; 0 month, listed as 20160908",99.6%
same,Related substance,"[2]; 0 month, listed as 20160908",0.34%
same,Appearance,"[2]; 1 month, listed as 20160808",white
same,Content,"[2]; 1 month, listed as 20160808",99.7%
same,Related substance,"[2]; 1 month, listed as 20160808",0.22%
same,Appearance,"[2]; 1 month, listed as 20160904",white
same,Content,"[2]; 1 month, listed as 20160904",99.7%
same,Related substance,"[2]; 1 month, listed as 20160904",0.21%
same,Appearance,"[2]; 1 month, listed as 20160908",white
same,Content,"[2]; 1 month, listed as 20160908",99.6%
same,Related substance,"[2]; 1 month, listed as 20160908",0.31%
same,Appearance,"[2]; 2 month, listed as 20160808",white
same,Content,"[2]; 2 month, listed as 20160808",99.4%
same,Related substance,"[2]; 2 month, listed as 20160808",0.19%
same,Appearance,"[2]; 2 month, listed as 20160904",white
same,Content,"[2]; 2 month, listed as 20160904",99.3%
same,Related substance,"[2]; 2 month, listed as 20160904",0.39%
same,Appearance,"[2]; 2 month, listed as 20160908",white
same,Content,"[2]; 2 month, listed as 20160908",99.5%
same,Related substance,"[2]; 2 month, listed as 20160908",0.29%
same,Appearance,"[2]; 3 month, listed as 20160808",white
same,Content,"[2]; 3 month, listed as 20160808",99.5%
same,Related substance,"[2]; 3 month, listed as 20160808",0.35%
same,Appearance,"[2]; 3 month, listed as 20160904",white
same,Content,"[2]; 3 month, listed as 20160904",99.3%
same,Related substance,"[2]; 3 month, listed as 20160904",0.35%
same,Appearance,"[2]; 3 month, listed as 20160908",white
same,Content,"[2]; 3 month, listed as 20160908",99.6%
same,Related substance,"[2]; 3 month, listed as 20160908",0.25%
same,physical and chemical stability compared with commercially available BHA,"[2]; fluidity, agglomeration, oxidation and colour change in the environment",better physical and chemical stability than commercially available BHA
same,stability during the preparation process,[3],better stability
same,correlation of maximum plasma concentration and AUC with the administration dose,[4],better correlation with the administration dose
same,individual differences in plasma concentration,[4],small individual differences in plasma concentration
COc1ccc(O)c(C(C)(C)C)c1 [2-tert-butyl-4-methoxyphenol],Appearance,[2]; 0 month,off-white
same,Content,[2]; 0 month,98.0%
same,Related substance,[2]; 0 month,1.8%
same,Appearance,[2]; 1 month,light yellowish
same,Content,[2]; 1 month,95.1%
same,Related substance,[2]; 1 month,3.9%
same,Appearance,[2]; 2 month,light yellowish +
same,Content,[2]; 2 month,92.1%
same,Related substance,[2]; 2 month,8.8%
same,Appearance,[2]; 3 month,light yellowish red
same,Content,[2]; 3 month,90.2%
same,Related substance,[2]; 3 month,9.3%
COc1cc(C(C)=O)ccc1O [Apocynin],effect on differentiation of monocytes into M2 macrophages,[5],inhibit the differentiation of monocytes into M2 macrophages
same,effect on occurrence of lung cancer,[6],inhibiting the occurrence of lung cancer
"COc1ccc(O)c(C(C)(C)C)c1 [BHA, 2-tert-butyl-4-methoxyphenol]",half-life,[7],30 to 60 min
same,recovery from central effect,mice; [12],recovered after half an hour
same,toxic effect seen,mice; [12],only part of the “hangover”-like central effect could be seen
same,lethality,mice; [13],half of the mice were lethal
same,time until toxic reaction symptoms disappeared in the surviving mice,mice; [13],30 to 60 min
same,toxic effect after long-term administration,mice; long-term low-dose administrations in mice for 2 years,no toxic effect
same,antioxidant capacity relative to 3-tert-butyl-4-methoxyphenol,[8],2-3 times
same,macrophage polarization regulation activity relative to 3-tert-butyl-4-methoxyphenol,macrophage polarization,5-100 times
same,effect on M2 polarization of macrophages,[9],inhibiting the M2 polarization of macrophages
same,anti-tumor effect,[10],anti-tumor proliferation and metastasis effects
same,effect on differentiation of monocytes into M2 macrophages,[5],inhibit the differentiation of monocytes into M2 macrophages
same,effect on occurrence of lung cancer,[6],inhibiting the occurrence of lung cancer
same,carcinogenic effects,[11],has carcinogenic effects
CC(=O)N[C@@H](CS)C(=O)O [NAC],effect on differentiation of monocytes into M2 macrophages,[5],inhibit the differentiation of monocytes into M2 macrophages
same,effect on occurrence of lung cancer,[6],inhibiting the occurrence of lung cancer
CC1(C)CCCC(C)(C)N1[O] [TEMPO],effect on differentiation of monocytes into M2 macrophages,[5],inhibit the differentiation of monocytes into M2 macrophages
same,effect on occurrence of lung cancer,[6],inhibiting the occurrence of lung cancer
